In ChEMBL document CHEMBL5576104, “Design, synthesis, and anti-melanogenic efficacy of 2-mercaptobenzoxazoles with nanomolar tyrosinase activity inhibition” (Bioorg Med Chem, 2024):
Activity calls are given as the source filed them. No cut-off for these calls is given here.

How the values were obtained:
[1] = target: T1, Mushroom tyrosinase (Agaricus bisporus, UniProt O42713+Q00024+C7FF04+C7FF05); test: Inhibition of mushroom tyrosinase using L-DOPA as substrate incubated for 30 mins by absorbance based microplate reader analysis; assay type: protein assay
[2] = target: T1, Mushroom tyrosinase; test: Inhibition of mushroom tyrosinase using L-tyrosine as substrate incubated for 30 mins by absorbance based microplate reader analysis; assay type: protein assay
[3] = target: T2, Mushroom tyrosinase (Agaricus bisporus) (UniProt O42713+Q00024+C7FF04+C7FF05); test: Potency index, ratio of kojic acid IC50 to test compound IC50 for inhibition of mushroom tyrosinase using L-DOPA as substrate incubated for 30 mins by absorbance based microplate reader analysis; assay type: protein assay
[4] = test system: B16-F10; test: Cytotoxicity against mouse B16-F10 cells assessed as reduction in cell viability at <=20 uM incubated for 72 hrs by EZ-Cytox assay; assay type: toxicity, cell-based; details: b16-f10, 72 h
[5] = test system: B16-F10; test: Antimelanogenic activity against IBMX/[…] stimulated mouse B16-F10 cells assessed as reduction in intracellular melanin content preincubated for 1 hr followed by IBMX/[…] addition and measured after 72 hrs by microplate reader analysis; assay type: functional, cell-based; details: dose 5-20 µM, time 73.0 hrs
[6] = target: T3, Tyrosinase (Mus musculus) (UniProt P11344); test: Inhibition of tyrosinase activity in IBMX/[…] stimulated mouse B16-F10 cells preincubated for 1 hr followed by IBMX/[…] addition and measured after 72 hrs by microplate reader assay; assay type: cell-based; details: dose 5-20 µM, time 73.0 hrs
T3 sequence (whole entry): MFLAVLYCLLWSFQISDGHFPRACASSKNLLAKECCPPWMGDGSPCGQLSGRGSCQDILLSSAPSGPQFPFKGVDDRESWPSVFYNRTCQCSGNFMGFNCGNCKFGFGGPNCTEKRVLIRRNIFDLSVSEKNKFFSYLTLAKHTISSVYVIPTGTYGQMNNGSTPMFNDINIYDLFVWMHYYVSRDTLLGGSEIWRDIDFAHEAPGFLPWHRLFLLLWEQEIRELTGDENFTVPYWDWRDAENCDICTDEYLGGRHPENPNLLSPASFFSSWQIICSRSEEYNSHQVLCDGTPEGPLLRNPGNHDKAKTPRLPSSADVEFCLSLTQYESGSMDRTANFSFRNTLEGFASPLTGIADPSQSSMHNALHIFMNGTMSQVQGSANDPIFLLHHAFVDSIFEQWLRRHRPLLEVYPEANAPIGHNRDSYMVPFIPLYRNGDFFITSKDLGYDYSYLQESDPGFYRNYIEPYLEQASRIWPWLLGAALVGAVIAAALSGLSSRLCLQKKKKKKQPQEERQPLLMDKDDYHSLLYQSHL

[7] = test system: HaCaT; test: Cytotoxicity against human HaCaT cells assessed as reduction in cell viability at 5 to 20 uM incubated for 24 hrs by EZ-Cytox assay; assay type: toxicity, cell-based; details: dose 5-20 µM
[8] = Antioxidant activity assessed as ABTS radical scavenging activity at 100 uM preincubated under dark condition for 2 mins and measured every 1 min for 10 mins by absorbance based microplate reader analysis relative to control; assay type: functional; details: time 12.0 min
[9] = target: T2, Mushroom tyrosinase (Agaricus bisporus); test: Potency index, ratio of phenylthiourea IC50 to test compound IC50 for inhibition of mushroom tyrosinase using L-tyrosine as substrate incubated for 30 mins by absorbance based microplate reader analysis; assay type: protein assay
[10] = target: T2, Mushroom tyrosinase (Agaricus bisporus); test: Inhibition of mushroom tyrosinase using L-DOPA as substrate at 500 nM incubated for 30 mins by absorbance based microplate reader analysis relative to control; assay type: protein assay
[11] = target: T2, Mushroom tyrosinase (Agaricus bisporus); test: Inhibition of mushroom tyrosinase using L-DOPA as substrate at 500 nM incubated for 30 mins in presence of CuSO4 by absorbance based microplate reader analysis relative to control; assay type: protein assay
[12] = target: T2, Mushroom tyrosinase (Agaricus bisporus); test: Mixed-type inhibition of mushroom tyrosinase using L-DOPA as substrate assessed as decrease in Vmax with increase in Km upto 1.8 uM using varying concentrations of substrate by Lineweaver-Burk plot analysis; assay type: protein assay
[13] = target: T1, Mushroom tyrosinase; test: Binding affinity to mushroom tyrosinase using L-DOPA as substrate assessed as inhibition constant by Dixon plot analysis; assay type: protein assay
[14] = Cytotoxicity against human HaCaT cells assessed as cell viability at 20 uM incubated for 24 hrs by EZ-Cytox assay relative to control; assay type: toxicity, cell-based; details: read-out: Activity
[15] = Cytotoxicity against human HaCaT cells assessed as cell viability at 5 uM incubated for 24 hrs by EZ-Cytox assay relative to control; assay type: toxicity, cell-based; details: read-out: Activity
[16] = Cytotoxicity against human HaCaT cells assessed as cell viability at 10 uM incubated for 24 hrs by EZ-Cytox assay relative to control; assay type: toxicity, cell-based; details: read-out: Activity
[17] = target: T2, Mushroom tyrosinase (Agaricus bisporus); test: Potency index, ratio of phenylthiourea IC50 to test compound IC50 for inhibition of mushroom tyrosinase; assay type: protein assay
[18] = target: T2, Mushroom tyrosinase (Agaricus bisporus); test: Mixed-type inhibition of mushroom tyrosinase using L-DOPA as substrate assessed as decrease in Vmax with increase in Km upto 0.2 uM using varying concentrations of substrate by Lineweaver-Burk plot analysis; assay type: protein assay
[19] = target: T2, Mushroom tyrosinase (Agaricus bisporus); test: Competitive inhibition of mushroom tyrosinase using L-DOPA as substrate assessed as increase in Km with constant Vmax upto 0.2 uM using varying concentrations of substrate by Lineweaver-Burk plot analysis; assay type: protein assay

| SMILES | IC50 [1] [µM] | IC50 [2] [µM] | Ratio IC50 [3] | inhibition [6] | Ratio IC50 [9] | inhibition [10] [%] | inhibition [11] [%] | inhibition [12] | Ki [13] [µM] | Ratio IC50 [17] | inhibition [18] | inhibition [19] | Activity [4] | Activity [5] | Activity [7] | Activity [8] [%] | viability at 24 h, 20 µM [14] [%] | viability at 24 h, 5 µM [15] [%] | viability at 24 h, 10 µM [16] [%] |
| --- | --- | --- | --- | --- | --- | --- | --- | --- | --- | --- | --- | --- | --- | --- | --- | --- | --- | --- | --- |
| Cc1ccc2oc(=S)[nH]c2c1 | 0.09 | 0.1 |  |  | 3 | > 92 | 26 | Active | 0.142 |  |  |  | Non-Toxic |  | Non-Toxic | 49 |  |  |  |
| S=c1[nH]c2ccc(Cl)cc2o1 | 6.25 | 2.02 |  |  |  |  |  |  |  |  |  |  | Non-Toxic |  | Non-Toxic | 49 |  |  |  |
| O=[N+]([O-])c1ccc2oc(=S)[nH]c2c1 | 5.81 | 2.41 |  |  |  |  |  |  |  |  |  |  | Non-Toxic |  |  | 49 | 84 | 91 | 91 |
| Cc1c(C)c2c(c(C)c1O)CCC(C)(C(=O)O)O2 (stereo not given) |  |  |  |  |  |  |  |  |  |  |  |  |  |  |  | 49 |  |  |  |
| Cc1ccc2[nH]c(=S)oc2c1 | 0.08 | 0.13 |  | Dose-Dependent Effect |  | > 92 | 26 |  | 0.098 | 2 | Active |  | Non-Toxic | Dose-Dependent Effect | Non-Toxic | 49 |  |  |  |

Second part, led by results:

| IC50 [1] [µM] | IC50 [2] [µM] | Ratio IC50 [3] | inhibition [6] | Ratio IC50 [9] | inhibition [10] [%] | inhibition [11] [%] | inhibition [12] | Ki [13] [µM] | Ratio IC50 [17] | inhibition [18] | inhibition [19] | SMILES | Activity [4] | Activity [5] | Activity [7] | Activity [8] [%] | viability at 24 h, 20 µM [14] [%] | viability at 24 h, 5 µM [15] [%] | viability at 24 h, 10 µM [16] [%] |
| --- | --- | --- | --- | --- | --- | --- | --- | --- | --- | --- | --- | --- | --- | --- | --- | --- | --- | --- | --- |
| 2.15 | 2.85 | 16 | Dose-Dependent Effect |  |  |  |  |  |  |  |  | Cc1cccc2oc(S)nc12 | Non-Toxic | Dose-Dependent Effect | Non-Toxic | 49 |  |  |  |
| 13.76 | 12.25 |  | Dose-Dependent Effect |  |  |  |  |  |  |  |  | O=[N+]([O-])c1ccc2nc(S)oc2c1 | Non-Toxic | Dose-Dependent Effect | Non-Toxic | 49 |  |  |  |
| 23.84 | 14.8 |  |  |  |  |  |  |  |  |  |  | O=[N+]([O-])c1cccc2oc(S)nc12 | Non-Toxic |  |  | 34 | 94 |  |  |
| 0.08 | 0.24 | 440 |  |  | > 92 | 26 |  | 0.058 |  |  | Active | Sc1nc2ccccc2o1 | Non-Toxic |  | Non-Toxic | 49 |  |  |  |
